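Cultured in 96-well plates, cells were exposed to test compound for 48 hours across five concentrations. Abbreviation: GI50, concentration required for 50% inhibition of growth.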 The source made the active and inactive calls. No stated cut-off is given here; in the data, active = GI50 up to about 1.1 µM and inactive = higher.
Legend:
Experiment in all cases: inhibition of tumour cell growth, NCI panel, 48 h
MCF7 = tested on: MCF7
RPMI-8226 = tested on: RPMI-8226
KM12 = tested on: KM12
SK-MEL-2 = tested on: SK-MEL-2
NCI/ADR-RES = tested on: NCI/ADR-RES
IGROV-1 = tested on: IGROV-1
HCC 2998 = tested on: HCC 2998
SK-MEL-28 = tested on: SK-MEL-28
T47D = tested on: T47D
MDA-N = tested on: MDA-N
M14 = tested on: M14
SR = tested on: SR
HL-60 = tested on: HL-60
MDA-MB-435 = tested on: MDA-MB-435
CCRF-CEM = tested on: CCRF-CEM
DU-145 = tested on: DU-145
SF-268 = tested on: SF-268
786-0 = tested on: 786-0
KM-20L2 = tested on: KM-20L2
SNB-78 = tested on: SNB-78

| Structure (SMILES) | GI50 (MCF7) | GI50 (RPMI-8226) | GI50 (KM12) | GI50 (SK-MEL-2) | GI50 (NCI/ADR-RES) | GI50 (IGROV-1) | GI50 (HCC 2998) | GI50 (SK-MEL-28) | GI50 (T47D) | GI50 (MDA-N) | GI50 (M14) | GI50 (SR) | GI50 (HL-60) | GI50 (MDA-MB-435) | GI50 (CCRF-CEM) | GI50 (DU-145) | GI50 (SF-268) | GI50 (786-0) | GI50 (KM-20L2) | GI50 (SNB-78) |
| --- | --- | --- | --- | --- | --- | --- | --- | --- | --- | --- | --- | --- | --- | --- | --- | --- | --- | --- | --- | --- |
| O=C(O)/C=C/c1c[nH]cn1 | > 500 µM (inactive) | > 500 µM (inactive) | > 500 µM (inactive) | > 500 µM (inactive) | > 500 µM (inactive) | > 500 µM (inactive) | > 500 µM (inactive) | > 500 µM (inactive) |  |  |  |  |  |  |  |  |  |  |  |  |
| CN1C[C@H]2[C@@H](C1=O)[C@H](c1ccccc1)ON2C | > 100 µM (inactive) | > 100 µM (inactive) |  | > 100 µM (inactive) | > 100 µM (inactive) | > 100 µM (inactive) | > 100 µM (inactive) | > 100 µM (inactive) | > 100 µM (inactive) | > 100 µM (inactive) | > 100 µM (inactive) | > 100 µM (inactive) | > 10 µM (inactive) | > 100 µM (inactive) | > 100 µM (inactive) | > 100 µM (inactive) |  |  |  |  |
| CN(CCO)CCC1COc2ccccc2O1 (stereo unspecified) | > 10 µM (inactive) | > 10 µM (inactive) | > 10 µM (inactive) | > 10 µM (inactive) | > 10 µM (inactive) | > 10 µM (inactive) | > 10 µM (inactive) | > 10 µM (inactive) | > 10 µM (inactive) | > 10 µM (inactive) | > 10 µM (inactive) | > 10 µM (inactive) | > 10 µM (inactive) | > 10 µM (inactive) | > 10 µM (inactive) | > 10 µM (inactive) | > 10 µM (inactive) |  |  |  |
| Cc1nnc2sc(N/N=C/c3ccccc3)nn12 | > 100 µM (inactive) | > 100 µM (inactive) | > 100 µM (inactive) | > 100 µM (inactive) | > 100 µM (inactive) | > 100 µM (inactive) |  | > 100 µM (inactive) | > 100 µM (inactive) | > 100 µM (inactive) | > 100 µM (inactive) |  |  | > 100 µM (inactive) | > 100 µM (inactive) | > 100 µM (inactive) | 61.2 µM (inactive) | > 100 µM (inactive) |  |  |
| N=C(N)N/N=C\c1c(-c2cccc([N+](=O)[O-])c2)nc2sccn12 | 2.03 µM (inactive) | 17.4 µM (inactive) | 1.02 µM (active) | 2.37 µM (inactive) | > 100 µM (inactive) | 15 µM (inactive) | 2.39 µM (inactive) | 2.04 µM (inactive) | 1.62 µM (inactive) |  | 2.52 µM (inactive) |  | 28.9 µM (inactive) | 2.59 µM (inactive) | 2.93 µM (inactive) | 5.16 µM (inactive) | 2.97 µM (inactive) | 3.89 µM (inactive) |  |  |
| COc1ccc(-c2nnc3c4ccccc4sn23)cc1 |  | 19.1 µM (inactive) | 19.3 µM (inactive) | 19 µM (inactive) |  | 19.8 µM (inactive) | 17 µM (inactive) | 22.8 µM (inactive) |  |  | 26.4 µM (inactive) | 16.6 µM (inactive) | 15.9 µM (inactive) |  | 7.23 µM (inactive) |  | 22.5 µM (inactive) |  | 29.2 µM (inactive) | 41.9 µM (inactive) |
| N#C/C(=C\c1ccc(Br)cc1)c1nc(-c2cc3ccccc3oc2=O)cs1 | 18.4 µM (inactive) | 44.1 µM (inactive) | 19.1 µM (inactive) | 17.1 µM (inactive) | 11.9 µM (inactive) | 12.3 µM (inactive) | 19.6 µM (inactive) | 28.2 µM (inactive) | 22.7 µM (inactive) | 17.7 µM (inactive) | 14.9 µM (inactive) | 34 µM (inactive) | > 50 µM (inactive) | 23.5 µM (inactive) | 41.8 µM (inactive) | 15.7 µM (inactive) | 14.5 µM (inactive) | 17 µM (inactive) |  |  |
| CC1=C2C(=C[C@H]3[C@]4(C)CCCC(C)(C)[C@H]4CC[C@]34O[C@H]24)OC1=O | > 100 µM (inactive) | > 100 µM (inactive) | > 100 µM (inactive) | > 100 µM (inactive) | > 100 µM (inactive) | > 100 µM (inactive) | > 100 µM (inactive) | > 100 µM (inactive) |  | > 100 µM (inactive) | > 100 µM (inactive) |  |  | > 100 µM (inactive) |  | > 100 µM (inactive) | > 100 µM (inactive) | > 100 µM (inactive) |  |  |
| O=C1C[C@@H](C(=O)OCc2ccccc2)NC(=O)C[C@@H](C(=O)OCc2ccccc2)NC(=O)C[C@@H](C(=O)OCc2ccccc2)N1 | > 100 µM (inactive) | 38.8 µM (inactive) | > 100 µM (inactive) | 13 µM (inactive) | > 100 µM (inactive) | 98.6 µM (inactive) | > 95.9 µM (inactive) | > 100 µM (inactive) | > 100 µM (inactive) | > 100 µM (inactive) | > 92.9 µM (inactive) | 4.06 µM (inactive) | 0.659 µM (active) | > 100 µM (inactive) | 0.0675 µM (active) | > 100 µM (inactive) | 15.2 µM (inactive) | 21 µM (inactive) |  |  |
| CC1(C)CNC(=O)C2(/C=N/C(C)(C)CNC(=O)C3(/C=N/1)CCCO3)CCCO2 (stereo unspecified) | > 10 µM (inactive) | > 10 µM (inactive) | > 10 µM (inactive) |  | > 10 µM (inactive) | > 10 µM (inactive) | > 10 µM (inactive) | > 10 µM (inactive) | > 10 µM (inactive) | > 10 µM (inactive) | > 10 µM (inactive) | > 10 µM (inactive) | > 10 µM (inactive) | > 10 µM (inactive) | > 10 µM (inactive) | > 10 µM (inactive) | > 10 µM (inactive) | > 10 µM (inactive) |  |  |
| CC(C)(C)[Si](C)(C)OCC1CCC(n2cnc3c(N)ncnc32)O1 (stereo unspecified) |  | 42 µM (inactive) | 39.1 µM (inactive) | 32.1 µM (inactive) |  | 53.8 µM (inactive) |  | 72.8 µM (inactive) | 27.2 µM (inactive) | 47.1 µM (inactive) | 38.8 µM (inactive) | > 10 µM (inactive) | 48.9 µM (inactive) | 25.9 µM (inactive) | 13.9 µM (inactive) | 73.8 µM (inactive) |  |  |  |  |
| N#CSCC1COc2ccccc2O1 (stereo unspecified) | > 10 µM (inactive) | 4.98 µM (inactive) | > 10 µM (inactive) | > 10 µM (inactive) | > 10 µM (inactive) | > 10 µM (inactive) | > 10 µM (inactive) | > 10 µM (inactive) | > 10 µM (inactive) | > 10 µM (inactive) | 8.39 µM (inactive) | 2.58 µM (inactive) | 2.55 µM (inactive) | > 10 µM (inactive) | 0.628 µM (active) | > 10 µM (inactive) | > 10 µM (inactive) |  |  |  |
| O=C1C2C(C(=O)N1OS(=O)(=O)c1ccccc1)N(Cc1ccccc1)C(=O)N2Cc1ccccc1 (stereo unspecified) |  | > 100 µM (inactive) | > 100 µM (inactive) |  |  | > 100 µM (inactive) | > 100 µM (inactive) | > 100 µM (inactive) |  |  | > 100 µM (inactive) | > 100 µM (inactive) | > 100 µM (inactive) |  | > 100 µM (inactive) |  | > 100 µM (inactive) | > 100 µM (inactive) | > 100 µM (inactive) | > 100 µM (inactive) |
| Brc1ccc(C2CC(c3cccc4ccccc34)=Nc3ccccc3S2)cc1 (stereo unspecified) |  | 10.9 µM (inactive) | 70.5 µM (inactive) | > 100 µM (inactive) |  | > 100 µM (inactive) | 30.4 µM (inactive) | > 100 µM (inactive) |  |  | > 100 µM (inactive) | 27.5 µM (inactive) | 26.4 µM (inactive) |  | 29 µM (inactive) |  | > 100 µM (inactive) |  | 96.8 µM (inactive) | 82 µM (inactive) |
| CC(=O)N(CCN1C(=O)c2ccccc2C1=O)CCN1C(=O)c2ccccc2C1=O |  | > 100 µM (inactive) | > 100 µM (inactive) | > 100 µM (inactive) |  |  | > 100 µM (inactive) | > 100 µM (inactive) |  |  | > 100 µM (inactive) | > 100 µM (inactive) | > 100 µM (inactive) |  | > 100 µM (inactive) |  | > 100 µM (inactive) | > 100 µM (inactive) | > 100 µM (inactive) | > 100 µM (inactive) |
| COc1c(Cl)cc(S(=O)O)cc1Cl |  |  | > 100 µM (inactive) | > 100 µM (inactive) |  |  | > 100 µM (inactive) | > 100 µM (inactive) |  |  | > 100 µM (inactive) |  | > 100 µM (inactive) |  | > 100 µM (inactive) |  | > 100 µM (inactive) |  |  | > 100 µM (inactive) |
| CC(NNC(=O)c1cc[n+]([BH2-]C#N)cc1)c1ccc(F)cc1 (stereo unspecified) | > 100 µM (inactive) | > 100 µM (inactive) | > 100 µM (inactive) | > 100 µM (inactive) | > 100 µM (inactive) | > 100 µM (inactive) | > 100 µM (inactive) | > 100 µM (inactive) | > 100 µM (inactive) | > 100 µM (inactive) | > 100 µM (inactive) | > 100 µM (inactive) | > 100 µM (inactive) | > 100 µM (inactive) | > 100 µM (inactive) | > 100 µM (inactive) | > 100 µM (inactive) | > 100 µM (inactive) |  |  |
| COc1cc(C2c3[nH]c4ccccc4c3[C@@H](Nc3ccc(F)cc3)[C@H]3COC(=O)N23)cc(OC)c1O (stereo partly specified) | 0.622 µM (active) |  | 1.91 µM (inactive) |  | 8.13 µM (inactive) | 1.32 µM (inactive) | 1.58 µM (inactive) | 2.01 µM (inactive) | 2.25 µM (inactive) | 2.3 µM (inactive) | 2.02 µM (inactive) |  |  | 2.5 µM (inactive) | 0.296 µM (active) | 0.759 µM (active) | 1.55 µM (inactive) |  |  |  |
| COc1cc(C(C)c2cc3c(cc2OCCO)OCO3)cc(OC)c1OC (stereo unspecified) |  | 4.59 µM (inactive) |  | 2 µM (inactive) |  | 0.832 µM (active) | 2.04 µM (inactive) |  |  |  | 1.18 µM (inactive) | 0.299 µM (active) | 0.313 µM (active) |  | 1.82 µM (inactive) |  | 3.9 µM (inactive) |  | 1.43 µM (inactive) | 12.2 µM (inactive) |
